Here are results for one substance from US10471177B2, “Surface modified biological materials” (Orthobond Corporation, priority 2011, dated 2019).

The data set in a line: Stability of gentamicin in 0.25M HCl under autoclave conditions. In kind it is physicochemical. The settings on record: earlier studies.

For the substance gentamicin, the “loss of gentamicin detection” value is reported as “No significant loss”.
